System: dogs with chronic heart failure produced by multiple sequential intracoronary microembolizations
Test: Hemodynamic measurements in dogs with chronic heart failure, 3 months oral therapy
Assay type: in vivo, dog
Excerpt: The following example examines the effects of ranolazine alone and in combination with an angiotensin converting enzyme (ACE) inhibitor and in combination with a beta-blocker on the progression of left ventricular (LV) dysfunction and LV chamber remodeling in dogs with chronic heart failure produced by multiple sequential intracoronary microembolizations.
Chronic LV dysfunction and failure in dogs was produced by multiple sequential intracoronary embolizations with polystyrene Latex microspheres (77-109 μm in diameter) as previously described by Sabbah et al. (1991) Am. J. Physiol. 260:H1379-H1384. Coronary microembolizations were performed during cardiac catheterization under general anesthesia and sterile conditions. Anesthesia was induced using a combination of intravenous injections of hydromorphone (0.22 mg/kg), diazepam (0.2-0.6 mg/kg) and sodium pentobarbital 50-100 mg to effect. Plane of anesthesia was maintained throughout the study using 1% to 2% isoflurane. Left and right heart catheterization was performed via a femoral arteriotomy and venotomy. After each catheterization, the vessels were repaired using 6-0 silk and the skin closed with 4-0 suture. Microembolizations were discontinued when LV ejection fraction, determined angiographically, was between 30% and 40%. A period of 2 weeks was allowed after the last embolization to ensure that infarctions produced by the last microembolizations have completely healed and heart failure was established. The study protocol was then performed.
Healthy, conditioned, purpose-bred mongrel dogs weighing between 19 and 25 kg.
A randomized, blinded, placebo controlled study design was used. A total of 28 dogs underwent multiple sequential intracoronary microembolizations as described above to produce chronic heart failure. Two weeks after the last embolization, dogs were randomized into 4 study groups (treatment arms). Dogs were randomized to 3 months oral therapy with ranolazine alone (375 mg, bid, n=7), ranolazine (375 mg bid) in combination with metoprolol tartrate (25 mg bid, n=7), ranolazine (375 mg bid) in combination with enalapril (10 mg bid, n=7), or placebo (ranolazine vehicle bid, n=7). Hemodynamic, angiographic, echocardiographic, Doppler and neurohumoral measurements were made prior to randomization (2 weeks after the last embolization) and after completion of therapy (3 months after initiating therapy). After completing the final hemodynamic and angiographic study, dogs were euthanized and the hearts removed and tissue prepared and saved for future histological and biochemical evaluations. The study primary and secondary end-points were as follows:
All hemodynamic measurements were made during left and right heart catheterizations in anesthetized dogs. Baseline measurements, prior to any microembolizations, were be made to ensure that all hemodynamic parameters are within normal limits. Abnormal dogs were excluded from the study. The following parameters were measured in all dogs at all three study time periods: heart rate, mean aortic pressure, peak rate of change of LV pressure during isovolumic contraction (peak+dP/dt) and relaxation (peak−dP/dt), and LV end-diastolic pressure.
To ensure that all study measures were similar at baseline, comparisons were made between all 4 study groups before any embolizations and at the time of randomization before initiation of therapy. For these comparisons, a one way analysis of variance (ANOVA) was used with a set at 0.05. If significance was attained, then group wise comparisons were made using the Student-Newman-Kuels test with significance set at p≦0.05. Within group comparisons between pre-treatment and post-treatment measures were made using a Students paired t-test with p<0.05 considered significant. To assess treatment effect, the change (Δ) in each measure from pre-treatment to post-treatment was calculated for each of the 4 study arms. […]

[1] = POST: after 3 months of oral therapy bid, mean±SEM
[2] = PRE: at time of randomization, before therapy, mean±SEM
[3] = change from pre-treatment to post-treatment (3 months), mean±SEM

SMILES: COc1ccccc1OCC(O)CN1CCN(CC(=O)Nc2c(C)cccc2C)CC1 (racemic) [RAN Alone, (±)-N-(2,6-dimethylphenyl)-4-[2-hydroxy-3-(2-methoxyphenoxy)-propyl]-1-piperazineacetamide]
- +dP/dt = peak LV +dP/dt [1]: 1416 ± 124 mmHg/sec
- HR = heart rate [1]: 80 ± 4 beats/min
- LVEDP = LV end-diastolic pressure [1]: 10 ± 1 mmHg
- mAoP = mean aortic pressure [1]: 81 ± 7 mmHg
- −dP/dt = peak LV −dP/dt [1]: 1460 ± 134 mmHg/sec
- +dP/dt = peak LV +dP/dt [2]: 1253 ± 119 mmHg/sec
- HR = heart rate [2]: 77 ± 2 beats/min
- LVEDP = LV end-diastolic pressure [2]: 14 ± 1 mmHg
- mAoP = mean aortic pressure [2]: 72 ± 3 mmHg
- −dP/dt = peak LV −dP/dt [2]: 1254 ± 74 mmHg/sec
- LV end-diastolic pressure, intra-group comparison pre- vs post-treatment (at the end of 3 months of treatment): decreased significantly
- Δ +dP/dt (peak LV +dP/dt) [3]: 163 ± 81 mmHg/sec
- Δ HR (heart rate) [3]: 3.3 ± 4.9 beats/min
- Δ LVEDP (LV end-diastolic pressure) [3]: −4.4 ± 1.1 mmHg
- Δ mAoP (mean aortic pressure) [3]: 9.1 ± 6.9 mmHg
- Δ −dP/dt (peak LV −dP/dt) [3]: 206 ± 109 mmHg/sec

From patent US20090176772A1, “METHOD OF REVERSING LEFT VENTRICULAR REMODELING” (priority 2004, published 2009)
